Assay results published in patent publication US10647713B2 (Nimbus Lakshmi, Inc., priority 2016, dated 2020).

molecular target: human TYK2 (JH2domain-pseudokinase) (Homo sapiens (Human), UniProt P29597); test: TYK2 JH2 Domain Binding Assay (KINOMEscan, DiscoveRx); conditions: 11-point dilution, duplicate
In short: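 Kd from duplicate 11-point 3-fold dilutions starting at 30,000 nM, fitted by Hill equation with slope fixed at −1. Compounds (final 0.9% DMSO) displace DNA-tagged HEK293-expressed TYK2 JH2 fusion (<0.1 nM) from ligand-coated beads over 1 h at room temperature; eluted kinase read by qPCR.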

Sequence of human TYK2 (JH2domain-pseudokinase) (P29597 556-888): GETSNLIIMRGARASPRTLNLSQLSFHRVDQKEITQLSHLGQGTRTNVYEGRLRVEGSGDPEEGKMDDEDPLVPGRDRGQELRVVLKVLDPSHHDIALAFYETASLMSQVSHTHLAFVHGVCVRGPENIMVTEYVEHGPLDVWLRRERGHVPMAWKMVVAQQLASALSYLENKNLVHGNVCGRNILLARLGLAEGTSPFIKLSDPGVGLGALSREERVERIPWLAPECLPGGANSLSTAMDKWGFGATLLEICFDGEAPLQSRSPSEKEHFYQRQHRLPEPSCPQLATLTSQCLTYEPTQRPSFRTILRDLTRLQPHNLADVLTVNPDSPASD

SMILES | Kd [nM]
Cn1ccc(-c2ccc(Nc3cc(NC(=O)C4CC4)nc4[nH]c(C(F)F)nc34)c(S(C)(=O)=O)c2)n1 [I-61, N-(2-(difluoromethyl)-7-((4-(1-methyl-1H-pyrazol-3-yl)-2-(methylsulfonyl)phenyl)amino)-3H-imidazo[4,5-b]pyridin-5-yl)cyclopropanecarboxamide] | 0.1 to 0.5
Cn1cnc(-c2ccc(Nc3cc(NC(=O)C4CC4)nc4[nH]c(C(F)F)nc34)c(S(C)(=O)=O)c2)c1 [I-62, N-(2-(difluoromethyl)-7-((4-(1-methyl-1H-imidazol-4-yl)-2-(methylsulfonyl)phenyl)amino)-3H-imidazo[4,5-b]pyridin-5-yl)cyclopropanecarboxamide] | 0.1 to 0.5
Cc1ccn(-c2ccc(Nc3cc(NC(=O)C4CC4)nc4[nH]c(C(F)F)nc34)c(S(C)(=O)=O)c2)n1 [I-63, N-(2-(difluoromethyl)-7-((4-(3-methyl-1H-pyrazol-1-yl)-2-(methylsulfonyl)phenyl)amino)-3H-imidazo[4,5-b]pyridin-5-yl)cyclopropanecarboxamide] | 0.5 to 1
CN(c1cc(-c2cn(C)cn2)ccc1Nc1cc(NC(=O)C2CC2)nc2[nH]c(C(F)F)nc12)S(C)(=O)=O [I-64, N-(2-(difluoromethyl)-7-((4-(1-methyl-1H-imidazol-4-yl)-2-(N-methylmethylsulfonamido)phenyl)amino)-3H-imidazo[4,5-b]pyridin-5-yl)cyclopropanecarboxamide] | 0.1 to 0.5
CN(c1cc(-c2cnn(C)c2)ccc1Nc1cc(NC(=O)C2CC2)nc2[nH]c(C(F)F)nc12)S(C)(=O)=O [I-65, N-(2-(difluoromethyl)-7-((4-(1-methyl-1H-pyrazol-4-yl)-2-(N-methylmethylsulfonamido)phenyl)amino)-3H-imidazo[4,5-b]pyridin-5-yl)cyclopropanecarboxamide] | 0.1 to 0.5
COc1c(Nc2cc(Nc3cnc(C(C)(C)OC)c(C#N)n3)nc3[nH]c(C(F)F)nc23)cccc1-c1nnn(C)n1 [I-80, 6-((2-(difluoromethyl)-7-((2-methoxy-3-(2-methyl-2H-tetrazol-5-yl)phenyl)amino)-3H-imidazo[4,5-b]pyridin-5-yl)amino)-3-(2-methoxypropan-2-yl)pyrazine-2-carbonitrile] | 1 to 10
CS(=O)(=O)c1cc(F)ccc1Nc1cc(NC(=O)C2CC2)nc2[nH]c(C(F)F)nc12 [I-85, N-(2-(difluoromethyl)-7-((4-fluoro-2-(methylsulfonyl)phenyl)amino)-3H-imidazo[4,5-b]pyridin-5-yl)cyclopropanecarboxamide] | 0.5 to 1
CN(c1ccccc1Nc1cc(Nc2cccc(C(F)(F)F)n2)nc2[nH]c(C(F)F)nc12)S(C)(=O)=O [I-87, N-(2-((2-(difluoromethyl)-5-((6-(trifluoromethyl)pyridin-2-yl)amino)-3H-imidazo[4,5-b]pyridin-7-yl)amino)phenyl)-N-methylmethanesulfonamide] | 0.5 to 1
CN(c1cc(N2CCC2)ccc1Nc1cc(NC(=O)C2CC2)nc2[nH]c(C(F)F)nc12)S(C)(=O)=O [I-89, N-(7-((4-(azetidin-1-yl)-2-(N-methylmethylsulfonamido)phenyl)amino)-2-(difluoromethyl)-3H-imidazo[4,5-b]pyridin-5-yl)cyclopropanecarboxamide] | 0.5 to 1
Cc1ncc(Nc2cc(Nc3ccc(Cl)cc3N(C)S(C)(=O)=O)c3nc(C(F)F)[nH]c3n2)nc1C [I-93, N-(5-chloro-2-((2-(difluoromethyl)-5-((5,6-dimethylpyrazin-2-yl)amino)-3H-imidazo[4,5-b]pyridin-7-yl)amino)phenyl)-N-methylmethanesulfonamide] | 0.1 to 0.5
CN(c1cc(Cl)ccc1Nc1cc(Nc2cccc(C#N)n2)nc2[nH]c(C(F)F)nc12)S(C)(=O)=O [I-94, N-(5-chloro-2-((5-((6-cyanopyridin-2-yl)amino)-2-(difluoromethyl)-3H-imidazo[4,5-b]pyridin-7-yl)amino)phenyl)-N-methylmethanesulfonamide] | 0.5 to 1
Cc1ccc(Nc2cc(NC(=O)C3CC3)nc3[nH]c(C(F)F)nc23)c(N(C)S(C)(=O)=O)c1 [I-95, N-(2-(difluoromethyl)-7-((4-methyl-2-(N-methylmethylsulfonamido)phenyl)amino)-3H-imidazo[4,5-b]pyridin-5-yl)cyclopropanecarboxamide] | 0.1 to 0.5
COCc1ccc(Nc2cc(NC(=O)C3CC3)nc3[nH]c(C(F)F)nc23)c(N(C)S(C)(=O)=O)c1 [I-96, N-(2-(difluoromethyl)-7-((4-(methoxymethyl)-2-(N-methylmethylsulfonamido)phenyl)amino)-3H-imidazo[4,5-b]pyridin-5-yl)cyclopropanecarboxamide] | 0.1 to 0.5
Cc1ccc(Nc2cc(Nc3cnc(C)c(C)n3)nc3[nH]c(C(F)F)nc23)c(N(C)S(C)(=O)=O)c1 [I-97, N-(2-((2-(difluoromethyl)-5-((5,6-dimethylpyrazin-2-yl)amino)-3H-imidazo[4,5-b]pyridin-7-yl)amino)-5-methylphenyl)-N-methylmethanesulfonamide] | > 10
COc1c(Nc2cc(NC(=O)C3CC3)nc3[nH]c(C)nc23)cccc1-c1nnn(C)n1 [I-98, N-(7-((2-methoxy-3-(2-methyl-2H-tetrazol-5-yl)phenyl)amino)-2-methyl-3H-imidazo[4,5-b]pyridin-5-yl)cyclopropanecarboxamide] | 0.5 to 1
COc1c(Nc2cc(Nc3ccc(C)nn3)nc3[nH]c(C)nc23)cccc1-c1nnn(C)n1 [I-100, N-7-(2-methoxy-3-(2-methyl-2H-tetrazol-5-yl)phenyl)-2-methyl-N5-(6-methylpyridazin-3-yl)-3H-imidazo[4,5-b]pyridine-5,7-diamine] | 0.1 to 0.5
COc1c(Nc2cc(Nc3ccc(C)cn3)nc3[nH]c(C)nc23)cccc1-c1nnn(C)n1 [I-101, N7-(2-methoxy-3-(2-methyl-2H-tetrazol-5-yl)phenyl)-2-methyl-N5-(5-methylpyridin-2-yl)-3H-imidazo[4,5-b]pyridine-5,7-diamine] | 1 to 10
COc1c(Cl)cccc1Nc1cc(NC(=O)C2CC2)nc2[nH]c(C)nc12 [I-103, N-(7-((3-chloro-2-methoxyphenyl)amino)-2-methyl-3H-imidazo[4,5-b]pyridin-5-yl)cyclopropanecarboxamide] | > 10
COc1c(F)cccc1Nc1cc(NC(=O)C2CC2)nc2[nH]c(C)nc12 [I-104, N-(7-((3-fluoro-2-methoxyphenyl)amino)-2-methyl-3H-imidazo[4,5-b]pyridin-5-yl)cyclopropanecarboxamide] | > 10
COc1c(C#N)cccc1Nc1cc(NC(=O)C2CC2)nc2[nH]c(C)nc12 [I-105, N-(7-((3-cyano-2-methoxyphenyl)amino)-2-methyl-3H-imidazo[4,5-b]pyridin-5-yl)cyclopropanecarboxamide] | > 10
COc1ccccc1Nc1cc(NC(=O)C2CC2)nc2[nH]c(C)nc12 [I-106, N-(7-((2-methoxyphenyl)amino)-2-methyl-3H-imidazo[4,5-b]pyridin-5-yl)cyclopropanecarboxamide] | > 10
COc1c(Nc2cc(NC(=O)C3CC3)nc3[nH]c(C)nc23)cccc1-c1cnn(C)c1 [I-107, N-(7-((2-methoxy-3-(1-methyl-1H-pyrazol-4-yl)phenyl)amino)-2-methyl-3H-imidazo[4,5-b]pyridin-5-yl)cyclopropanecarboxamide] | 1 to 10
